{"source": "paper PMC6745035", "about": "“Novel tetrahydroacridine derivatives with iodobenzoic moieties induce G0/G1 cell cycle arrest and apoptosis in A549 non-small lung cancer and HT-29 colorectal cancer cells” (Molecular and Cellular Biochemistry, 2019)", "key": {"SH-SY5Y cells [1]": {"system": "SH-SY5Y cells", "assay": "Cytoprotection against rotenone/oligomycin A, pre-incubation, MTT", "format": "cell-based, human", "settings": "for Cytoprotective properties in the pre-incubation assay (in words): rotenone/oligomycin A, range of concentration 1–0.001 µM; for Cytoprotection: pre-incubation with rotenone/oligomycin A", "description": "Rotenone with oligomycin A (R/O) were taken to induce mitochondrial ROS by blocking of complexes I and V of the mitochondrial electron transport chain. It causes free radical production and blockade of ATP synthesis. In the pre-incubation experiment, it could be assessed whether the compounds have cytoprotective properties due to the activation of endogenous antioxidant pathways. In the co-incubation could be shown whether compounds are free-radical scavengers. MTT assay was a test of choice, because in this assay mitochondrial activity is measured. […] It can be determined whether novel compound would protect cells from both apoptotic and necrotic death resulting from the increase of intracellular ROS. In both experiments, trolox was used as a reference compound. […] After this time, toxic mixture was added, and cells were maintained for an additional 24 h in the presence of the compounds."}, "HT-29 cells": {"system": "HT-29 cells", "assay": "MTT cytotoxicity assay, HT-29", "format": "cell-based", "settings": "Homo sapiens, HT-29; MTT, 24 h incubation; read-out: IC50 µM ± SD against HT-29", "source_text": "(§1) The MTT assay was used to evaluate cell metabolic activity. The test principle is based on the determination of cell viability by measuring the metabolic activity in mitochondria. Enzymatically active mitochondria reduce the water-soluble MTT (3-(4,5-dimethylthiazol-2-yl)-2,5 diphenyltetrazoliumbromide) to blue–violet insoluble formazan. The number of viability cells is proportional to the colour intensity determined by photometric measurements (an analytical wavelength 570 nm) after dissolving the formazan in Dimethylsulfoxide (DMSO) (Serva) and Sorensen’s glycine buffer. MTT (Sigma Aldrich) was dissolved in Phosphate Buffered Saline (PBS) (PAN-Biotech) at a concentration of 0.5 mg/mL. Sorensen’s glycine buffer is made of 0.1 M glycine and 0.1 M NaCl, at pH 10.5. Studied compounds were dissolved in DMSO in order to receive stock solutions.\n(§2) For the assay, cells were seeded into 96-well plates at density 10^4 cells per well and cultured for 24 h at 37 °C and 5% CO2. Then medium was removed, and cells were exposed to the 100 µL of the compound solutions over a range of concentrations (final DMSO concentration was below 0.2%) or nothing but culture medium (blank control). Pure DMSO was used as a positive control. After 24 h of incubation with the compound solutions, medium was removed and 50 µL of the MTT solution was added to each well and incubated in the dark for additional 2 h at 37 °C. Then the MTT solution was carefully removed and 100 µL of DMSO was added. Plates were incubated for 10 min at room temperature. Finally, 5 µL of Sorensen Buffer was added to each well. Plate was swayed, and the absorbance was measured by using microplate reader (Synergy H1, BioTek, Winooski, VT, USA) at a wavelength of 570 nm. The cell viability was expressed as a percentage of the control values (blank). The experiments were done in triplicate."}, "supercoiled pUC19 DNA": {"system": "supercoiled pUC19 DNA", "settings": "100 µM; human Topoisomerase I"}, "A549 cells": {"system": "A549 cells", "assay": "MTT cytotoxicity assay, A549", "format": "cell-based, human", "settings": "Homo sapiens, A549; MTT, 24 h incubation; read-out: IC50 µM ± SD against A549", "source_text": "A549 cell line (lung carcinoma from human) (European Collection of Cell Culture) and HT-29 cell line (colorectal adenocarcinoma from human) (American Type Culture Collection) were chosen to evaluate the cytotoxicity of novel compounds.\nas §1, §2"}, "PARP-1": {"system": "PARP-1", "assay": "Western blot of PARP-1 cleavage, A549", "format": "cell-based, human", "settings": "A549, 24 h, IC50 and 1/2IC50", "description": "Then, cells were treated with chosen compounds. After 24 h of incubation, monolayer and supernatant were harvested and washed in cold PBS. Cells were centrifuged—monolayer at 1200 rpm for 10 min, supernatant 3500 rpm for 10 min. Pellets were dissolved in RIPA Lysis and Extraction buffer (Bio-Rad) containing Phosphatase Inhibitor Cocktail 3 (Sigma Aldrich) and Protease Inhibitor Cocktail (Sigma Aldrich). Samples were incubated in ice for 30 min and mixed every 10 min. Then, samples were centrifuged at 12,000 rpm for 25 min. Protein concentration in supernatants was measured in triplicate using a Protein Assay (Bio-Rad). Proteins were separated by SDS–polyacrylamide gel electrophoresis. Separating and stacking gels were made of different ratios of water, Tris–HCl pH 6.8 and pH 8.8, 10% SDS (Sigma Aldrich), Acrylamide/bis-acrylamide (Sigma Aldrich), 10% APS (Sigma Aldrich), TEMED (Sigma Aldrich). 7.5% gels were prepared for analysis PARP-1, whereas 12% gels prepared for γ-H2AX. After separation on SDS–polyacrylamide gels, proteins were electroblotted on nitrocellulose membrane in Transfer Buffer (Glycine, Tris, Methanol). Membranes were washed in TBS/0.1% or 0.05% Tween20 solution and blocked in Tris-buffered saline with 5% of non-fated dried milk for 1 h. Membranes were then incubated overnight with primary antibodies—anti-PARP-1 (Cell Signaling Technology), anti-γ-H2A.X (Cell Signaling Technology), anti-β-actin (Cell Signaling Technology) in cold room (6 °C). After incubation, membranes well washed with TBS/Tween solution and blocked with and horseradish peroxidase-conjugated secondary antibodies (Bio-Rad) for 1 h in cold room. Protein bands were visualized using ECL™ Prime Western Blotting Detection Reagents (Sigma Aldrich) Healthcare and Carestream Kodak autoradiography GBX fixer/replenisher (Sigma Aldrich) with Developer and Replenisher (Carestream) in the dark room. Results were obtained on Autoradiography Film (Santa Cruz Biotechnology). Densitometric analysis was performed by using a software program (ImageJ). […]"}, "SH-SY5Y cells [2]": {"system": "SH-SY5Y cells", "assay": "Cytoprotection against H2O2 (100 µM), MTT", "settings": "for Cells viability (%) ± SD after 24 h of incubation with compound and H2O2: H2O2 100 µM, H2O2 only 82.74%"}, "[3]": {"settings": "Homo sapiens, 24 h, read-out: Cells viability (%) ± SD after 24 h of incubation with compound and H2O2"}}, "note": "Entries after “also recorded” stand apart in the source; their conditions may differ."}
{"smiles": "O=C(NCCCNc1c2c(nc3ccccc13)CCCC2)c1ccccc1I", "note": "[Compound 1b]", "values": [{"measurement": "Cytoprotective properties in the pre-incubation assay (in words)", "setting": "SH-SY5Y cells [1]", "result": "did not show cytoprotective properties"}, {"measurement": "IC50", "setting": "HT-29 cells", "result": "16.1 ± 1.55", "unit": "µM"}, {"measurement": "Intercalation: supercoiled pUC19 DNA band (in words)", "setting": "supercoiled pUC19 DNA", "result": "bands at the same level as EB"}, {"measurement": "IC50", "setting": "A549 cells", "result": "32.5 ± 2.25", "unit": "µM"}, {"measurement": "Cleaved PARP-1 (89 kDa) level (in words)", "setting": "PARP-1", "result": "comparable apoptotic effect at their IC50 concentrations"}, {"measurement": "Cells viability (%) ± SD after 24 h of incubation with compound and H2O2", "setting": "SH-SY5Y cells [2]; concentration: 1b 16.26, 1c 6.79, 1e 11.75, 1f 4.26, 1i 5.90 µM", "result": "64.61 ± 4.88", "unit": "%"}, {"measurement": "Cells viability (%) ± SD after 24 h of incubation with compound and H2O2", "setting": "SH-SY5Y cells [2]; concentration: 1b 65.04, 1c 27.16, 1e 46.98, 1f 17.04, 1i 29.74 µM", "result": "17.21 ± 1.18", "unit": "%"}, {"measurement": "viability at 1 µM", "setting": "SH-SY5Y cells [2]; [3]", "result": "99.2 ± 1.67", "unit": "%"}]}
{"smiles": "O=C(NCCCCNc1c2c(nc3ccccc13)CCCC2)c1ccccc1I", "note": "[Compound 1c]", "values": [{"measurement": "Cytoprotection", "setting": "SH-SY5Y cells [1]; 0.001 µM", "result": 32.91, "unit": "%"}, {"measurement": "Cytoprotection", "setting": "SH-SY5Y cells [1]; 0.01 µM", "result": 37.05, "unit": "%"}, {"measurement": "Cytoprotection", "setting": "SH-SY5Y cells [1]; 0.1 µM", "result": 33.15, "unit": "%"}, {"measurement": "Cytoprotection", "setting": "SH-SY5Y cells [1]; 1 µM", "result": 33.92, "unit": "%"}, {"measurement": "Cytoprotective properties in the pre-incubation assay (in words)", "setting": "SH-SY5Y cells [1]", "result": "showed their action against oxidative stress in the whole range of concentrations"}, {"measurement": "IC50", "setting": "HT-29 cells", "result": "13.6 ± 1.39", "unit": "µM"}, {"measurement": "Intercalation: supercoiled pUC19 DNA band (in words)", "setting": "supercoiled pUC19 DNA", "result": "bands at the same level as EB"}, {"measurement": "IC50", "setting": "A549 cells", "result": "59.1 ± 5.86", "unit": "µM"}, {"measurement": "viability at 1 µM", "setting": "SH-SY5Y cells [2]; [3]", "result": "101 ± 1.19", "unit": "%"}]}
{"smiles": "O=C(NCCCNc1c2c(nc3ccccc13)CCCC2)c1cccc(I)c1", "note": "[Compound 1e]", "values": [{"measurement": "Cytoprotection", "setting": "SH-SY5Y cells [1]; 0.001 µM", "result": 36.22, "unit": "%"}, {"measurement": "Cytoprotection", "setting": "SH-SY5Y cells [1]; 0.01 µM", "result": 51.19, "unit": "%"}, {"measurement": "Cytoprotection", "setting": "SH-SY5Y cells [1]; 0.1 µM", "result": 46.39, "unit": "%"}, {"measurement": "Cytoprotection", "setting": "SH-SY5Y cells [1]; 1 µM", "result": 24.79, "unit": "%"}, {"measurement": "Cytoprotective properties in the pre-incubation assay (in words)", "setting": "SH-SY5Y cells [1]", "result": "showed their action against oxidative stress in the whole range of concentrations"}, {"measurement": "IC50", "setting": "HT-29 cells", "result": "11 ± 0.59", "unit": "µM"}, {"measurement": "Intercalation: supercoiled pUC19 DNA band (in words)", "setting": "supercoiled pUC19 DNA", "result": "bands at the same level as EB"}, {"measurement": "IC50", "setting": "A549 cells", "result": "23.5 ± 2.6", "unit": "µM"}, {"measurement": "Cleaved PARP-1 (89 kDa) level (in words)", "setting": "PARP-1", "result": "comparable apoptotic effect at their IC50 concentrations; also recorded: highest PARP-1 cleavage was observed for 1/2IC50 (11.75 µM)"}, {"measurement": "viability at 1 µM", "setting": "SH-SY5Y cells [2]; [3]", "result": "89.8 ± 8.55", "unit": "%"}]}
{"smiles": "O=C(NCCCCNc1c2c(nc3ccccc13)CCCC2)c1ccc(I)cc1", "note": "[Compound 1i]", "values": [{"measurement": "Cytoprotective properties in the pre-incubation assay (in words)", "setting": "SH-SY5Y cells [1]", "result": "did not show cytoprotective properties"}, {"measurement": "IC50", "setting": "HT-29 cells", "result": "5.9 ± 0.42", "unit": "µM"}, {"measurement": "IC50", "setting": "A549 cells", "result": "14.9 ± 1.06", "unit": "µM"}, {"measurement": "Cleaved PARP-1 (89 kDa) level (in words)", "setting": "PARP-1", "result": "highest effect"}, {"measurement": "Neuroprotection against H2O2 (in words)", "setting": "SH-SY5Y cells [2]; H2O2 100 µM, 29.74, 14.87, 5.90 and 1 µM", "result": "neuroprotection was not observed at any dose"}, {"measurement": "viability at 1 µM", "setting": "SH-SY5Y cells [2]; [3]", "result": "29.7 ± 3.39", "unit": "%"}, {"measurement": "viability at 5.9 µM", "setting": "SH-SY5Y cells [2]; [3]", "result": "25.9 ± 1.24", "unit": "%"}, {"measurement": "viability at 14.87 µM", "setting": "SH-SY5Y cells [2]; [3]", "result": "20.7 ± 1.45", "unit": "%"}, {"measurement": "viability at 29.74 µM", "setting": "SH-SY5Y cells [2]; [3]", "result": "18.7 ± 1.25", "unit": "%"}]}
